Literature values as cited in patent US20100273711A1, “INDIVIDUALIZED CANCER TREATMENTS” (priority 2007, published 2010).

Legend:
[1] = tested on: BT20; details: cell line BT20, breast ca; cited from earlier work
[2] = tested on: DV-90; details: cell line DV-90, lung ca; cited from earlier work
[3] = tested on: HT-29; details: cell line HT-29, colon ca; cited from earlier work
[4] = tested on: SNU182; details: cell line SNU182, HCC; cited from earlier work
[5] = tested on: 257p; details: cell line 257p, gastric ca; cited from earlier work
[6] = tested on: R193; details: cell line R193, breast ca; cited from earlier work
[7] = tested on: Du145; details: cell line Du145, prostate ca; cited from earlier work
[8] = tested on: FU-OV-1; details: cell line FU-OV-1, ovarian ca; cited from earlier work
[9] = tested on: SNU449; details: cell line SNU449, HCC; cited from earlier work
[10] = tested on: C8161; details: cell line C8161, melanoma; cited from earlier work
[11] = tested on: SNU423; details: cell line SNU423, HCC; cited from earlier work
[12] = tested on: SKBR3; details: cell line SKBR3, breast ca; cited from earlier work
[13] = tested on: 181/85p; details: cell line 181/85p, pancreas ca; cited from earlier work
[14] = tested on: OAW42; details: cell line OAW42, ovarian ca; cited from earlier work
[15] = tested on: SNU475; details: cell line SNU475, HCC; cited from earlier work
[16] = tested on: ME43; details: cell line ME43, melanoma; cited from earlier work
[17] = tested on: Hep3B; details: cell line Hep3B, HCC; cited from earlier work
[18] = tested on: OVCAR3; details: cell line OVCAR3, ovarian ca; cited from earlier work
[19] = tested on: SKOV-3; details: cell line SKOV-3, ovarian ca; cited from earlier work
[20] = tested on: MeWo; details: cell line MeWo, melanoma; cited from earlier work
[21] = tested on: SW13; details: cell line SW13, adrenal cortex carcinoma; cited from earlier work
[22] = tested on: R103; details: cell line R103, breast ca; cited from earlier work
[23] = tested on: A375; details: cell line A375, melanoma; cited from earlier work
[24] = tested on: CX-2; details: cell line CX-2, colon ca; cited from earlier work
[25] = tested on: HRT-18; details: cell line HRT-18, colon ca; cited from earlier work
[26] = tested on: SKMel19; details: cell line SKMel19, melanoma; cited from earlier work
[27] = tested on: ES-2; details: cell line ES-2, ovarian ca; cited from earlier work

N.N.[Cl][Pt][Cl] [Cisplatin, cisplatin]
Cisplatin Resistant (Res) or Sensitive (Sen) [1]: Sen | Cisplatin Resistant (Res) or Sensitive (Sen) [2]: Sen | Cisplatin Resistant (Res) or Sensitive (Sen) [3]: Res | Cisplatin Resistant (Res) or Sensitive (Sen) [4]: Res | Cisplatin Resistant (Res) or Sensitive (Sen) [5]: Res | Cisplatin Resistant (Res) or Sensitive (Sen) [6]: Sen | Cisplatin Resistant (Res) or Sensitive (Sen) [7]: Res | Cisplatin Resistant (Res) or Sensitive (Sen) [8]: Sen | Cisplatin Resistant (Res) or Sensitive (Sen) [9]: Res | Cisplatin Resistant (Res) or Sensitive (Sen) [10]: Res | Cisplatin Resistant (Res) or Sensitive (Sen) [11]: Res | Cisplatin Resistant (Res) or Sensitive (Sen) [12]: Res | Cisplatin Resistant (Res) or Sensitive (Sen) [13]: Res | Cisplatin Resistant (Res) or Sensitive (Sen) [14]: Sen | Cisplatin Resistant (Res) or Sensitive (Sen) [15]: Res | Cisplatin Resistant (Res) or Sensitive (Sen) [16]: Res | Cisplatin Resistant (Res) or Sensitive (Sen) [17]: Res | Cisplatin Resistant (Res) or Sensitive (Sen) [18]: Sen | Cisplatin Resistant (Res) or Sensitive (Sen) [19]: Res | Cisplatin Resistant (Res) or Sensitive (Sen) [20]: Res | Cisplatin Resistant (Res) or Sensitive (Sen) [21]: Res | Cisplatin Resistant (Res) or Sensitive (Sen) [22]: Sen | Cisplatin Resistant (Res) or Sensitive (Sen) [23]: Res | Cisplatin Resistant (Res) or Sensitive (Sen) [24]: Res | Cisplatin Resistant (Res) or Sensitive (Sen) [25]: Res | Cisplatin Resistant (Res) or Sensitive (Sen) [26]: Res | Cisplatin Resistant (Res) or Sensitive (Sen) [27]: Res
